Assay results reported in patent US20070213305A1, “N-alkyl-N-aryl-thienopyrimidin-4-amines and analogs as activators of caspases and inducers of apoptosis and the use thereof” (Cytovia, Inc., priority 2005, published 2007).
Where two headings read alike, the source gives them in different places.

Columns and labels:
[1] = tested on: multi-drug resistant (MDR) human sarcoma cell line MES-SA/ADR; test: Inhibition of cell proliferation (GI50) in MES-SA/ADR cells; assay type: cell-based
Method: (§1) T-47D, HT29, H1299, MX-1 and MDAMB435 cells were grown and harvested as in Example 29. An aliquot of 90 μL of cells (4.4×10^4 cells/mL) was added to a well of a 96-well microtiter plate containing 5 μL of a 10% DMSO in RPMI-1640 media solution containing 10 nM to 100 μM of N-(4-methoxyphenyl)-N,2-dimethylthieno[2,3-d]pyrimidin-4-amine (1 nM to 10 μM final) or related compounds. An aliquot of […] of cells was added to a well of a 96-well microtiter plate containing 5 μL of a 10% DMSO in RPMI-1640 media solution without compound as the control sample for maximal cell proliferation (LMax). The samples were mixed by agitation and then incubated at 37° C. for 48 h in a 5% CO2-95% humidity incubator. After incubation, the samples were removed from the incubator and 25 μL of CellTiter-Glo™ reagent (Promega) was added. The samples were mixed by agitation and incubated at room temperature for 10-15 min. Plates were then read using a luminescent plate reader (Model SPECTRAfluor Plus, Tecan) to give Ltest values.
(§2) The samples were mixed by agitation and then incubated at 37° C. for 0.5 h in a 5% CO2-95% humidity incubator. After incubation, the samples were removed from the incubator and 25 μL of CellTiter-Glo™ reagent (Promega) was added. The samples were mixed by agitation and incubated at […] room temperature in a 5% CO2-95% humidity incubator. […] was read as above, (Lstart) defining luminescence for initial cell number used as baseline in GI50 determinations. ps Calculation:
(§3) GI50 (dose for 50% inhibition of cell proliferation) is the concentration where [(LTest-LStart)/(LMax-LStart)]=0.5.
(§4) Several compounds were tested in other cancer cell lines, including human sarcoma cell line MES-SA and multi-drug resistant (MDR) human sarcoma cell line MES-SA/ADR, murine leukemia cell line P388 and multi-drug resistant (MDR) murine leukemia cell line P388ADR, and the data are summarized in Table IV.

[2] = tested on: human sarcoma cell line MES-SA; test: Inhibition of cell proliferation (GI50) in MES-SA cells; assay type: cell-based
Method: as §1, §2, §3, §4

[3] = tested on: murine leukemia cell line P388; test: Inhibition of cell proliferation (GI50) in P388 cells; assay type: cell-based
Method: as §1, §2, §3, §4

[4] = tested on: human lung cancer cell line H1299; test: Caspase cascade activation (DEVD-R110 fluorogenic substrate) in H1299 cells; assay type: cell-based; conditions: read-out: Caspase Activation Potency EC50 (nM) (24 h) H1299
Method: (§5) Human breast cancer cell line T-47D, human lung cancer cell line H1299 and human hepatocellular carcinoma cell line SNU398 were grown according to media component mixtures designated by American Type Culture Collection+10% FCS (Invitrogen Corporation), in a 5% CO2-95% humidity incubator at 37° C. T-47D and H1299 cells were maintained at a cell density between 50 and 80% confluency at a cell density of 0.1 to 0.6×10^6 cells/mL. Cells were harvested at 600×g and resuspended at 0.65×10^6 cells/mL into appropriate media+10% FCS. An aliquot of 22.5 μL of cells was added to a well of a 384-well microtiter plate containing 2.5 μL of a 10% DMSO in RPMI-1640 media solution containing 0.16 to 100 μM of N-(4-methoxyphenyl)-N, 2-dimethylthieno[3,2-d]pyrimidin-4-amine or other test compound (0.016 to 10 μM final). An aliquot of 22.5 μL of cells was added to a well of a 384-well microtiter plate containing 2.5 μL of a 10 % DMSO in RPMI-1640 media solution without test compound as the control sample. The samples were mixed by agitation and then incubated at 37° C. for 24 h or 48 h in a 5% CO2-95% humidity incubator. After incubation, the samples were removed from the incubator and 25 μL of a solution containing 14 μM of N-(Ac-DEVD)-N′-ethoxycarbonyl-R110 (SEQ ID No.:1) fluorogenic substrate (Cytovia, Inc.; WO99/18856), 20% sucrose (Sigma), 20 mM DTT (Sigma), 200 mM NaCI (Sigma), 40 mM Na PIPES buffer pH 7.2 (Sigma), and 500 μg/mL lysolecithin (Calbiochem) was added. The samples were mixed by agitation and incubated at room temperature. Using a fluorescent plate reader (Model SPECTRAfluor Plus, Tecan), an initial reading (T=0) was made approximately 1-2 min after addition of the substrate solution, employing excitation at 485 nm and emission at 530 nm, to determine the background fluorescence of the control sample. After the 3 h incubation, the samples were read for fluorescence as above (T=3 h).
(§6) The Relative Fluorescence Unit values (RFU) were used to calculate the sample readings as follows: RFU(T=3h)-Control RFU(T=0)=Net RFU(T=3h)
(§7) The activity of caspase cascade activation was determined by the ratio of the net RFU value for N-(4-methoxyphenyl)-N,2-dimethylthieno[3,2-d]pyrimidin-4-amine or other test compound to that of control samples. The EC50 (nM) was determined by a sigmoidal dose-response calculation (Prism 3.0, GraphPad Software Inc.).

[5] = tested on: human hepatocellular carcinoma cell line SNU398; test: Caspase cascade activation (DEVD-R110 fluorogenic substrate) in SNU398 cells; assay type: cell-based
Method: as §5, §6, §7
Several compounds were also tested in other cancer cells lines (48 h assay), including human hepatocellular carcinoma cell line SNU398, human colon carcinoma cell line […], human B cell lymphoblastoid cell line Ramos, human Burkitt's lymphoma cell line Namalwa, and cervical cancer cell line HeLa, and the data are summarized in Table II.

[6] = tested on: human breast cancer cell line T-47D; test: Caspase cascade activation (DEVD-R110 fluorogenic substrate) in T-47D cells; assay type: cell-based; conditions: 24 h, read-out: Caspase Activation Potency EC50 (nM) (24 h) T-47D
Method: as §5, §6, §7

[7] = tested on: multi-drug resistant (MDR) murine leukemia cell line P388ADR; test: Inhibition of cell proliferation (GI50) in P388/ADR cells; assay type: cell-based
Method: as §1, §2, §3, §4

T-47D cells = test: Inhibition of cell proliferation (GI50, CellTiter-Glo) in T-47D cells; assay type: cell-based, human; conditions: T47D, 48 h incubation, read-out: GI50 in Cancer Cells GI50 (nM) T47D
Method: as §1, §2, §3

MX-1 cells = test: Inhibition of cell proliferation (GI50, CellTiter-Glo) in MX-1 cells; assay type: cell-based; conditions: MX1, 48 h incubation, read-out: GI50 in Cancer Cells GI50 (nM) MX1
Method: as §1, §2, §3

HT29 cells = test: Inhibition of cell proliferation (GI50, CellTiter-Glo) in HT29 cells; assay type: cell-based; conditions: HT29, 48 h incubation, read-out: GI50 in Cancer Cells GI50 (nM) HT29
Method: as §1, §2, §3

H1299 cells = test: Inhibition of cell proliferation (GI50, CellTiter-Glo) in H1299 cells; assay type: cell-based, human; conditions: H1299, 48 h incubation, read-out: GI50 in Cancer Cells GI50 (nM) H1299
Method: as §1, §2, §3

MDAMB435 cells = test: Inhibition of cell proliferation (GI50, CellTiter-Glo) in MDAMB435 cells; assay type: cell-based; conditions: MDAMB435, 48 h incubation, read-out: GI50 in Cancer Cells GI50 (nM) MDAMB435
Method: as §1, §2, §3

[8] = tested on: human B cell lymphoblastoid cell line Ramos; test: Caspase cascade activation in Ramos cells; assay type: cell-based; conditions: 48 h, read-out: Caspase Activation Potency EC50 (nM) (48 h) Ramos
Method: (§8) Human breast cancer cell line T-47D, human lung cancer cell line H1299 and human hepatocellular carcinoma cell line SNU398 were grown according to media component mixtures designated by American Type Culture Collection+10% FCS (Invitrogen Corporation), in a 5% CO2-95% humidity incubator at 37° C. T-47D and H1299 cells were maintained at a cell density between 50 and 80% confluency at a cell density of 0.1 to 0.6×10^6 cells/mL. Cells were harvested at 600×g and resuspended at 0.65×10^6 cells/mL into appropriate media+10% FCS. […] Using a fluorescent plate reader (Model SPECTRAfluor Plus, Tecan), an initial reading (T=0) was made approximately 1-2 min after addition of the substrate solution, employing excitation at 485 nm and emission at 530 nm, to determine the background fluorescence of the control sample. After the 3 h incubation, the samples were read for fluorescence as above (T=3 h).
as §6
as §7, with “Inc.). […]” for “Inc.).”

HCT116 = test: Caspase cascade activation in HCT116 cells; assay type: cell-based; conditions: Homo sapiens, HCT-116; HCT116, 48 h; read-out: Caspase Activation Potency EC50 (nM) (48 h) HCT116
Method: as §8, §6
as §7, with “Inc.). […]” for “Inc.).”

[9] = tested on: human Burkitt's lymphoma cell line Namalwa; test: Caspase cascade activation in Namalwa cells; assay type: cell-based; conditions: Burkitts lymphoma cell, 48 h, read-out: Caspase Activation Potency EC50 (nM) (48 h) Namalwa
Method: as §8, §6
as §7, with “Inc.). […]” for “Inc.).”

[10] = tested on: cervical cancer cell line HeLa; test: Caspase cascade activation in HeLa cells; assay type: cell-based; conditions: Homo sapiens, 48 h, read-out: Caspase Activation Potency EC50 (nM) (48 h) HeLa
Method: as §8, §6
as §7, with “Inc.). […]” for “Inc.).”

[11] = tested on: human lymphoma cell line Raji; test: Caspase cascade activation in Raji cells; assay type: cell-based; conditions: 48 h, read-out: Caspase Activation Potency EC50 (nM) (48 h) Raji
Method: as §8, §6
as §7, with “Inc.). […]” for “Inc.).”

[12] = Homo sapiens, SNU-398, SNU398, 24 h, read-out: Caspase Activation Potency EC50 (nM) (24 h) SNU398
[13] = Homo sapiens, SNU-398, SNU398, 48 h, read-out: Caspase Activation Potency EC50 (nM) (48 h) SNU398

Structure (SMILES) | GI50 in Multi-Cancer Cells EC50 (nM) MES-SA/ADR [1] | GI50 in Multi-Cancer Cells EC50 (nM) MES-SA [2] | GI50 in Multi-Cancer Cells EC50 (nM) P388 [3] | EC50 ([4]; Homo sapiens, NCI-H1299, 24 h) | EC50 [5, 12] | EC50 ([6]; Homo sapiens, T47D) | GI50 in Multi-Cancer Cells EC50 (nM) P388/ADR [7] | EC50 [5, 13] | EC50 (HCT116) | EC50 [10] | further results
COc1ccc(N(C)c2nc(C)nc3ccsc23)cc1 [Example 1, N-(4-Methoxyphenyl)-N,2-dimethylthieno[3,2-d]pyrimidin-4-amine] | 13 nM | 12 nM | 15 nM | 24 nM | 28 nM | 14 nM | 16 nM | – | – | – | –
COc1ccc(N(C)c2nc(C)nc3scc(C)c23)cc1 [Example 4, N-(4-Methoxyphenyl)-N,2,5-trimethylthieno[2,3-d]pyrnmidin-4-amine] | – | – | – | – | – | – | – | – | – | – | GI50 (T-47D cells): 5 nM; GI50 (MX-1 cells): 5 nM; GI50 (HT29 cells): 5 nM; EC50 ([4]; H1299, 24 h): 9 nM; GI50 (H1299 cells): 2 nM; EC50 ([5]; SNU398, 24 h, read-out: Caspase Activation Potency EC50 (nM) (24 h) SNU398): 4 nM; EC50 [6]: 4 nM; GI50 (MDAMB435 cells): 5 nM
COc1ccc(N(C)c2nc(C)nc3sccc23)cc1.Cl [Example 5, N-(4-Methoxyphenyl)-N,2-dimethylthieno[2,3-d]pyrimidin-4-amine hydrochloride] | 5 nM | 3 nM | 7 nM | 14 nM | 12 nM | 8 nM | 4 nM | 9 nM | 27 nM | 8 nM | EC50 [8]: 27 nM; EC50 [9]: 20 nM; EC50 [11]: 20 nM

Further lines, with some results ahead:

GI50 in Multi-Cancer Cells EC50 (nM) MES-SA/ADR [1] | GI50 in Multi-Cancer Cells EC50 (nM) MES-SA [2] | GI50 in Multi-Cancer Cells EC50 (nM) P388 [3] | EC50 ([4]; Homo sapiens, NCI-H1299, 24 h) | EC50 [5, 12] | EC50 ([6]; Homo sapiens, T47D) | GI50 in Multi-Cancer Cells EC50 (nM) P388/ADR [7] | EC50 [5, 13] | EC50 (HCT116) | EC50 [10] | Structure (SMILES) | further results
100 nM | 58 nM | 74 nM | 56 nM | 123 nM | 45 nM | 105 nM | – | – | – | COc1ccc(N(C)c2ncnc3ccsc23)cc1 [Example 6, N-(4-Methoxyphenyl)-N-methylthieno[3,2-d]pyrimidin-4-amine] | GI50 (T-47D cells; Homo sapiens): 4 nM; GI50 (MX-1 cells; Homo sapiens): 40 nM; GI50 (HT29 cells; Homo sapiens, HT-29): 40 nM; GI50 (H1299 cells; Homo sapiens, NCI-H1299): 38 nM; GI50 (MDAMB435 cells; Homo sapiens, MDA-MB-435): 16 nM
– | – | – | 59 nM | 27 nM | 17 nM | – | 16 nM | 15 nM | 30 nM | COc1ccc(N(C)c2nc(C)nc3sc(C)c(C)c23)cc1 [Example 24, N-(4-Methoxyphenyl)-N,2,5,6-tetramethylthieno[2,3-d]pyrimidin-4-amine] | –
